Test results from patent publication US20250179073A1, “TRICYCLIC HETEROCYCLE COMPOUNDS AS IAP ANTAGONISTS” (Ascentage Pharma (Suzhou) Co., Ltd., priority 2022, published 2025).

Columns and labels:
MDA-MB-231 cells = test: Cell proliferation assay (CellTiter-Glo), MDA-MB-231; type: cell-based; details: Homo sapiens, MDA-MB-231, 72 h, 72 h treatment, Celltiter-Glo luminescence
How it was run: (§1)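 MDA-MB-231 (RPMI-1640/10% FBS) and EVSA-T (MEM/10% FBS) cells, 10000 cells/well, exposed 72 h to compound at […]. Viability read by CellTiter-Glo luminescence after 15 min at room temperature. IC50 from control-normalised curve fitting.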

EVSA-T cells = test: Cell proliferation assay (CellTiter-Glo), EVSA-T; type: cell-based; details: Homo sapiens, EVSA-T, 72 h, 72 h treatment, Celltiter-Glo luminescence
How it was run: as §1

IC50 (MDA-MB-231 cells)	SMILES	IC50 (EVSA-T cells)
0.023 µM	C[C@@H]1CN(CC(=O)N2CC(C)(C)c3c2cc(Cc2ccc(F)cc2)c2nn(CC#N)c(=O)n32)[C@@H](CN2CCOC[C@H]2C)CN1 [Compound 185, 2-(4-(4-fluorobenzyl)-8,8-dimethyl-6-(2-((2R,5R)-5-methyl-2-(((R)-3-methylmorpholino)methyl)piperazin-1-yl)acetyl)-1-oxo-7,8-dihydro-1H-pyrrolo[2,3-e][1,2,4]triazolo[4,3-a]pyridin-2(6H)-yl)acetonitrile]	0.007 µM
0.097 µM	C[C@@H]1CN(CC(=O)N2CC(C)(C)c3c2cc(Cc2ccc(F)cc2)c2nc(C(F)(F)F)cn32)[C@@H](CN2CCN(C3COC3)C[C@H]2C)CN1 [Compound 181, 1-(4-(4-fluorobenzyl)-8,8-dimethyl-2-(trifluoromethyl)-7,8-dihydro-6H-imidazo[1,2-a]pyrrolo[2,3-e]pyridin-6-yl)-2-((2R,5R)-5-methyl-2-(((R)-2-methyl-4-(oxetan-3-yl)piperazin-1-yl)methyl)piperazin-1-yl)ethan-1-one]	0.015 µM
0.046 µM	C[C@@H]1CN(CC(=O)N2CC(C)(C)c3c2cc(Cc2ccc(F)cc2N)c2ncnn32)[C@@H](CN2CCOC[C@H]2C)CN1 [Compound 129, 1-(4-(2-amino-4-fluorobenzyl)-8,8-dimethyl-7,8-dihydro-6H-pyrrolo[2,3-e][1,2,4]triazolo[1,5-a]pyridin-6-yl)-2-((2R,5R)-5-methyl-2-(((R)-3-methylmorpholino)methyl)piperazin-1-yl)ethan-1-one]	0.011 µM
0.031 µM	CC(=O)N(C)c1nc2c(Cc3ccc(F)cc3)cc3c(n2n1)C(C)(C)CN3C(=O)CN1C[C@@H](C)NC[C@@H]1CN1CCOC[C@H]1C [Compound 238, N-(4-(4-fluorobenzyl)-8,8-dimethyl-6-(2-((2R,5R)-5-methy 1-2-(((R)-3-methylmorpholino)methyl)piperazin-1-yl)acetyl)-7,8-dihydro-6H-pyrrolo[2,3-e][1,2,4]triazolo[1,5-a]pyridin-2-yl)-N-methylacetamide]	0.0013 µM
0.027 µM	C[C@@H]1CN(CC(=O)N2CC(C)(C)c3c2cc(Cc2ccc(F)cc2)c2nn(CC(F)(F)F)c(=O)n32)[C@@H](CN2CCOC[C@H]2C)CN1 [Compound 263, 4-(4-fluorobenzyl)-8,8-dimethyl-6-(2-((2R,5R)-5-methyl-2-(((R)-3-methylmorpholino)methyl)piperazin-1-yl)acetyl)-2-(2,2,2-trifluoroethyl)-2,6,7,8-tetrahydro-1H-pyrrolo[2,3-e][1,2,4]triazolo[4,3-a]pyridin-1-one]	0.0082 µM
0.003 µM	C[C@@H]1CN(CC(=O)N2CC(C)(C)c3c2cc(Cc2ccc(F)cc2)c2nc(C4(O)CC4)nn32)[C@@H](CN2CCOC[C@H]2C)CN1 [Compound 244, 1-(4-(4-fluorobenzyl)-2-(1-hydroxycyclopropyl)-8,8-dimethyl-7,8-dihydro-6H-pyrrolo[2,3-e][1,2,4]triazolo[1,5-a]pyridin-6-yl)-2-((2R,5R)-5-methyl-2-(((R)-3-methylmorpholino)methyl)piperazin-1-yl)ethan-1-one]	0.0046 µM
0.041 µM	C[C@@H]1CN(CC(=O)N2CC(C)(C)c3c2cc(Cc2ccc(F)cc2)c2nc(CN(C)C)nn32)[C@@H](CN2CCOC[C@H]2C)CN1 [Compound 212, 1-(2-((dimethylamino)methyl)-4-(4-fluorobenzyl)-8,8-dimethyl-7,8-dihydro-6H-pyrrolo[2,3-e][1,2,4]triazolo[1,5-a]pyridin-6-yl)-2-((2R,5R)-5-methyl-2-(((R)-3-methylmorpholino)methyl)piperazin-1-yl)ethan-1-one]	0.007 µM
0.01 µM	COC(=O)Nc1nc2c(Cc3ccc(F)cc3)cc3c(n2n1)C(C)(C)CN3C(=O)CN1C[C@@H](C)NC[C@@H]1CN1CCOC[C@H]1C [Compound 234, methyl (4-(4-fluorobenzyl)-8,8-dimethyl-6-(2-((2R,5R)-5-methyl-2-(((R)-3-methylmorpholino)methyl)piperazin-1-yl)acetyl)-7,8-dihydro-6H-pyrrolo[2,3-e][1,2,4]triazolo[1,5-a]pyridin-2-yl)carbamate]	0.0007 µM
0.047 µM	C[C@@H]1CN(CC(=O)N2CC(C)(C)c3c2cc(Cc2ccc(F)cc2)c2ncnn32)[C@@H](CN2Cc3ccncc3C2=O)CN1 [Compound 97, 2-(((2R,5R)-1-(2-(4-(4-fluorobenzyl)-8,8-dimethyl-7,8-dihydro-6H-pyrrolo[2,3-e][1,2,4]triazolo[1,5-a]pyridin-6-yl)-2-oxoethyl)-5-methylpiperazin-2-yl)methyl)-1,2-dihydro-3H-pyrrolo[3,4-c]pyridin-3-one]	0.003 µM
0.05 µM	C[C@@H]1CN(CC(=O)N2CC(C)(C)c3c2cc(Cc2ccc(F)cc2)c2nn(Cc4cnccn4)c(=O)n32)[C@@H](CN2CCOC[C@H]2C)CN1 [Compound 193, 4-(4-fluorobenzyl)-8,8-dimethyl-6-(2-((2R,5R)-5-methyl-2-(((R)-3-methylmorpholino)methyl)piperazin-1-yl)acetyl)-2-(pyrazin-2-ylmethyl)-2,6,7,8-tetrahydro-1H-pyrrolo[2,3-e][1,2,4]triazolo[4,3-a]pyridin-1-one]	0.006 µM
0.012 µM	C[C@@H]1CN(CC(=O)N2CC(C)(C)c3c2cc(Cc2ccc(F)cc2)c2ncnn32)[C@@H](CN2Cc3c(F)cccc3C2=O)CN1 [Compound 99, 4-fluoro-2-(((2R,5R)-1-(2-(4-(4-fluorobenzyl)-8,8-dimethyl-7,8-dihydro-6H-pyrrolo[2,3-e][1,2,4]triazolo[1,5-a]pyridin-6-yl)-2-oxoethyl)-5-methylpiperazin-2-yl)methyl)isoindolin-1-one]	0.005 µM
0.084 µM	C[C@@H]1CN(CC(=O)N2CC(C)(C)c3c2cc(Cc2ccc(F)cc2)n2ncnc32)[C@@H](CN2CCOC[C@H]2C)CN1 [Example 25, 1-(5-(4-fluorobenzyl)-9,9-dimethyl-8,9-dihydro-7H-pyrrolo[3,2-c][1,2,4]triazolo[1,5-a]pyridin-7-yl)-2-((2R,5R)-5-methyl-2-(((R)-3-methylmorpholino)methyl)piperazin-1-yl)ethan-1-one]	0.011 µM
0.13 µM	C[C@@H]1CN(CC(=O)N2CC(C)(C)c3c2cc(C(F)(F)CC2CC2)c2ncnn32)[C@@H](CN2CCOC[C@H]2C)CN1 [Compound 53, 1-(4-(2-cyclopropyl-1,1-difluoroethyl)-8,8-dimethyl-7,8-dihydro-6H-pyrrolo[2,3-e][1,2,4]triazolo[1,5-a]pyridin-6-yl)-2-((2R,5R)-5-methyl-2-(((R)-3-methylmorpholino)methyl)piperazin-1-yl)ethan-1-one]	0.06 µM
0.04 µM	C[C@@H]1CN(CC(=O)N2CC(C)(C)c3c2cc(Cc2ccc(F)cc2)c2nn(C)c(=O)n32)[C@@H](CN2CCOC[C@H]2C)CN1 [Compound 135, 4-(4-fluorobenzyl)-2,8,8-trimethyl-6-(2-((2R,5R)-5-methyl-2-(((R)-3-methylmorpholino)methyl)piperazin-1-yl)acetyl)-2,6,7,8-tetrahydro-1H-pyrrolo[2,3-e][1,2,4]triazolo[4,3-a]pyridin-1-one]	0.004 µM
0.072 µM	C[C@@H]1CN(CC(=O)N2CC(C)(C)c3c2cc(Cc2ccc(F)cc2)c2ncnn32)[C@@H](CN2Cc3cccnc3C2=O)CN1 [Compound 98, 6-(((2R,5R)-1-(2-(4-(4-fluorobenzyl)-8,8-dimethyl-7,8-dihydro-6H-pyrrolo[2,3-e][1,2,4]triazolo[1,5-a]pyridin-6-yl)-2-oxoethyl)-5-methylpiperazin-2-yl)methyl)-5,6-dihydro-7H-pyrrolo[3,4-b]pyridin-7-one]	0.008 µM
0.028 µM	C[C@@H]1CN(CC(=O)N2CC(C)(C)c3c2cc(Cc2ccc(F)cc2)c2nc(C4CCOC4)nn32)[C@@H](CN2CCOC[C@H]2C)CN1 (stereo partly drawn) [Compound 163, 1-(4-(4-fluorobenzyl)-8,8-dimethyl-2-(tetrahydrofuran-3-yl)-7,8-dihydro-6H-pyrrolo[2,3-e][1,2,4]triazolo[1,5-a]pyridin-6-yl)-2-((2R,5R)-5-methyl-2-(((R)-3-methylmorpholino)methyl)piperazin-1-yl)ethan-1-one]	0.002 µM
0.077 µM	C[C@@H]1CN(CC(=O)N2CC(C)(C)c3c2cc(Cc2ccc(F)cc2)c2cncn32)[C@@H](CN2CCOC[C@H]2C)CN1 [Compound 1, 1-(4-(4-fluorobenzyl)-8,8-dimethyl-7,8-dihydro-6H-imidazo[1,5-a]pyrrolo[2,3-e]pyridin-6-yl)-2-((2R,5R)-5-methyl-2-(((R)-3-methylmorpholino)methyl)piperazin-1-yl)ethan-1-one]	0.007 µM
0.021 µM	C[C@@H]1CN(CC(=O)N2CC(C)(C)c3c2cc(Cc2ccc(F)cc2)c2nn(C4CC(C)(O)C4)c(=O)n32)[C@@H](CN2CCOC[C@H]2C)CN1 (stereo partly drawn) [Compound 272, 4-(4-fluorobenzyl)-2-(3-hydroxy-3-methylcyclobutyl)-8,8-dimethyl-6-(2-((2R,5R)-5-methyl-2-(((R)-3-methylmorpholino)methyl)piperazin-1-yl)acetyl)-2,6,7,8-tetrahydro-1H-pyrrolo[2,3-e][1,2,4]triazolo[4,3-a]pyridin-1-one]	0.002 µM

SMILES	IC50 (MDA-MB-231 cells)	IC50 (EVSA-T cells)
C[C@@H]1CN(CC(=O)N2CC(C)(C)c3c2cc(Cc2ccc(F)cc2)c2nc(N4CC5CC(C4)O5)nn32)[C@@H](CN2CCOC[C@H]2C)CN1 [Compound 189, 1-(2-(6-oxa-3-azabicyclo[3.1.1]heptan-3-yl)-4-(4-fluorobenzyl)-8,8-dimethyl-7,8-dihydro-6H-pyrrolo[2,3-e][1,2,4]triazolo[1,5-a]pyridin-6-yl)-2-((2R,5R)-5-methyl-2-(((R)-3-methylmorpholino)methyl)piperazin-1-yl)ethan-1-one]	0.01 µM	0.002 µM
